Values of other authors as cited in US20050158845A1 (priority 2001, published 2005).

Tested on: human hepatocyte and neuroblastoma cells
Conditions: cited from earlier work

Row | Structure (SMILES) | effects on hepatocyte and neuroblastoma cell metabolism
1 | CCOP(=O)(OCC)Oc1ccc([N+](=O)[O-])cc1 [paraoxon] | opposite effects
2 | CCOP(=S)(OCC)Oc1ccc([N+](=O)[O-])cc1 [parathion] | opposite effects
